Source: patent publication US8962627B2, “Oxime derivatives and their use as allosteric modulators of metabotropic glutamate receptors” (Prestwick Chemical, Inc., priority 2009, dated 2015)

Assays:
[1] = target: T1, human mGluR4 transiently over-expressed in HEK-293 cells (Homo sapiens, UniProt Q14833); test: Human mGluR4 positive allosteric modulator evaluation using Ca++ functional assay; assay type: cell-based; details: for EC50: HEK-293 cells co-transfected with hmGluR4 and chimeric G protein, EC10 glutamate, intracellular calcium (Fluo4AM), read-out: mean EC50 of agonist/positive allosteric modulator activity on mGluR4
T1 construct: expressed in transfected cells; host or cells: HEK-293 cells, transient co-transfection by electroporation
T1 sequence (Q14833 33-912): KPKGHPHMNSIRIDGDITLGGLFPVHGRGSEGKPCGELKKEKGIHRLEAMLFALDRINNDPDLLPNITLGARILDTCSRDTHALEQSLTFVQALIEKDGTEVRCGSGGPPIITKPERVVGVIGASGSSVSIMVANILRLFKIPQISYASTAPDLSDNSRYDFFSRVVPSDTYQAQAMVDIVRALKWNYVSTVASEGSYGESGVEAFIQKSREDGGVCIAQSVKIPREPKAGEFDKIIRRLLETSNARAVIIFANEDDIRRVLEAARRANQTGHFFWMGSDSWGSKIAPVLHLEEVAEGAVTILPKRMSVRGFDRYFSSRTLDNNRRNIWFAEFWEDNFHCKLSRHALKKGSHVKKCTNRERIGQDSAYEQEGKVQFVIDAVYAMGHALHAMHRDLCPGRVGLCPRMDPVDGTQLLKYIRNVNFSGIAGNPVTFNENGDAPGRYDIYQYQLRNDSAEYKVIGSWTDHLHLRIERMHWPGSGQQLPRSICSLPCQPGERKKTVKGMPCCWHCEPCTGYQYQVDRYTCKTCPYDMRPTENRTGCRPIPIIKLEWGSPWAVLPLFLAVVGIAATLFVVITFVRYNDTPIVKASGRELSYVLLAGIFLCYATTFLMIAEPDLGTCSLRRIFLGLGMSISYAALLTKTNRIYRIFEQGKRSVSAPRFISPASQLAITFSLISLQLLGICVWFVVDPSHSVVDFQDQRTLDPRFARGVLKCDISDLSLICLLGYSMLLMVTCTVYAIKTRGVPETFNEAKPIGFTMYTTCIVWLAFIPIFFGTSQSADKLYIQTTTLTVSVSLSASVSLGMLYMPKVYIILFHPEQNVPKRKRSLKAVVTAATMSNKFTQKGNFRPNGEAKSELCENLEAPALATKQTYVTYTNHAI
Method in brief: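 HEK-293 cells transiently co-transfected with hmGluR4 and a chimeric G protein, loaded with Fluo4AM; Ca2+ fluorescence read 485/525 nm. Compound alone read 60 s, then EC10 glutamate added and read 60 s more. EC50 fitted from 6–9 concentrations, duplicate, two independent runs.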

CN(C)C1CCN(CCOc2ccc3oc(-c4cc5cccn5cn4)cc(=NO)c3c2)CC1.Cl.Cl [Example 99, 6-[2-(4-dimethylamino-piperidin-1-yl)-ethoxy]-2-pyrrolo[1,2-c]pyrimidin-3-yl-chromen-4-one oxime, dihydrochloride]
EC50 [1]: < 1 µM | melting point: > 255 °C (dec.)

ON=c1cc(-c2cc3ccccc3cn2)oc2ccc(C(F)(F)F)cc12 (mixture of isomers) [Example 11, 2-isoquinolin-3-yl-6-trifluoromethyl-chromen-4-one oxime]
EC50 [1]: < 5 µM | melting point: 245 to 247 °C

ON=c1cc(-c2cc3cccn3cn2)oc2ccc(OCCOc3cccnc3)cc12 [Example 148, 6-[2-(Pyridin-3-yloxy)-ethoxy]-2-pyrrolo[1,2-c]pyrimidin-3-yl-chromen-4-one oxime]
EC50 [1]: < 1 µM | melting point: 170 to 175 °C

Cl.OC[C@@H]1CCCN1CCOc1ccc2oc(-c3cc4cccn4cn3)cc(=NO)c2c1 [Example 95, 6-[2-((S)-2-hydroxymethylpyrrolidin-1-yl)-ethoxy]-2-pyrrolo[1,2-c]pyrimidin-3-yl-chromen-4-one oxime, hydrochloride]
EC50 [1]: < 5 µM | melting point: > 220 °C (dec.)

Cl.ON=c1cc(-c2cc3cccn3cn2)oc2ccc(CNCc3ccc(F)cc3)cc12 [Example 144, 6-[(4-Fluoro-benzylamino)-methyl]-2-pyrrolo[1,2-c]pyrimidin-3-yl-chromen-4-one oxime hydrochloride]
EC50 [1]: < 5 µM | melting point: > 210 °C (dec.)

COC[C@H]1CCCN1CCOc1ccc2oc(-c3cc4cccn4cn3)cc(=NO)c2c1.Cl [Example 97, 6-[2-((R)-2-methoxymethylpyrrolidin-1-yl)-ethoxy]-2-pyrrolo[1,2-c]pyrimidin-3-yl-chromen-4-one oxime, hydrochloride]
EC50 [1]: < 1 µM | melting point: 210 °C (dec.)

CC1CN(CCOc2ccc3oc(-c4cc5sccc5cn4)cc(=NO)c3c2)CC(C)O1.Cl (stereo not drawn) [Example 132, 6-[2-(2,6-Dimethyl-morpholin-4-yl)-ethoxy]-2-thieno[3,2-c]pyridin-6-yl-chromen-4-one oxime, hydrochloride]
EC50 [1]: < 1 µM | melting point: 222 to 225 °C

Cl.ON=c1cc(-c2cn3cccc3cn2)oc2ccc(OCCN3CCOCC3)cc12 [Example 123, 6-(2-Morpholin-4-yl-ethoxy)-2-(8aH-pyrrolo[1,2-a]pyrazin-3-yl)-chromen-4-one oxime, hydrochloride]
EC50 [1]: < 1 µM | melting point: > 250 °C (dec.)

Cl.ON=c1cc(-c2cc3cccn3cn2)oc2ccc(OCCN3CCCC(F)(F)C3)cc12 [Example 114, 6-[2-(3,3-difluoro-piperidin-1-yl)-ethoxy]-2-pyrrolo[1,2-c]pyrimidin-3-yl-chromen-4-one oxime, hydrochloride]
EC50 [1]: < 1 µM | melting point: 190 to 195 °C

CN1CCCN(CCOc2ccc3oc(-c4cc5cccn5cn4)cc(=NO)c3c2)CC1.Cl.Cl [Example 94, 6-[2-(4-methyl-[1,4]diazepan-1-yl)-ethoxy]-2-pyrrolo[1,2-c]pyrimidin-3-yl-chromen-4-one oxime, dihydrochloride]
EC50 [1]: < 1 µM | melting point: > 210 °C (dec.)

Cl.O=C(NCCN1CCOCC1)c1ccc2oc(-c3cc4cccn4cn3)cc(=NO)c2c1 [Example 115, 4-(hydroxyimino)-2-pyrrolo[1,2-c]pyrimidin-3-yl-4H-chromene-6-carboxylic acid (2-morpholin-4-yl-ethyl)-amide, hydrochloride]
EC50 [1]: < 1 µM | melting point: 230 to 235 °C

ON=c1cc(-c2cc3ccsc3cn2)oc2ccccc12 (mixture of isomers) [Example 69, 2-Thieno[2,3-c]pyridin-5-yl-chromen-4-one oxime]
EC50 [1]: < 1 µM | melting point: 243 to 245 °C

ON=c1cc(-c2cc3cccn3cn2)oc2ccc(OCCc3cccc(C(F)(F)F)c3)cc12 [Example 141, 2-Pyrrolo[1,2-c]pyrimidin-3-yl-6-[2-(3-trifluoromethyl-phenyl)-ethoxy]-chromen-4-one oxime]
EC50 [1]: < 1 µM | melting point: 217 to 218 °C

Cl.ON=c1cc(-c2cc3cccn3cn2)oc2ccc(OCCN3CCC(O)C3)cc12 (stereo not drawn) [Example 98, 6-[2-(3-hydroxy-pyrrolidin-1-yl)-ethoxy]-2-pyrrolo[1,2-c]pyrimidin-3-yl-chromen-4-one oxime, hydrochloride]
EC50 [1]: < 1 µM | melting point: > 230 °C (dec.)

COCCOc1ccc2oc(-c3cc4ccccc4cn3)cc(=NO)c2c1 (mixture of isomers) [Example 43, 2-isoquinolin-3-yl-6-(2-methoxy-ethoxy)-chromen-4-one oxime]
EC50 [1]: < 1 µM | melting point: 198 to 204 °C

Cl.ON=c1cc(-c2cc3sccc3cn2)oc2ccc(OCCCc3ccncc3)cc12 [Example 134, 6-(3-Pyridin-4-yl-propoxy)-2-thieno[3,2-c]pyridin-6-yl-chromen-4-one oxime, hydrochloride]
EC50 [1]: < 1 µM | melting point: 236 to 238 °C

N#Cc1ccc2c(=NO)cc(-c3cc4ccccc4cn3)oc2c1 [Example 58, 7-cyano-2-isoquinolin-3-yl-chromen-4-one oxime]
EC50 [1]: < 5 µM | melting point: 279 to 281 °C

CN(C)c1ccc2oc(-c3cc4ccccc4cn3)cc(=NO)c2c1 [Example 39, 6-dimethylamino-2-isoquinolin-3-yl-chromen-4-one oxime]
EC50 [1]: < 5 µM | melting point: 223 to 225 °C

Cl.ON=c1cc(-c2cc3cccn3cn2)oc2cccc(OCCN3CCOCC3)c12 [Example 156, 5-(2-Morpholin-4-yl-ethoxy)-2-pyrrolo[1,2-c]pyrimidin-3-yl-chromen-4-one oxime, hydrochloride]
EC50 [1]: < 1 µM | melting point: 200 to 205 °C

ON=c1cc(-c2ccc3ccccc3c2)oc2ccccc12 [Example 74, 2-Naphthalen-2-yl-chromen-4-one oxime]
PAM activity on mGluR4 ([1]; up to 100 μM): no PAM activity | melting point: 224 to 226 °C

Cl.ON=c1cc(-c2cc3sccc3cn2)oc2ccc(OCCN3CCC(F)(F)CC3)cc12 [Example 128, 6-[2-(4,4-Difluoro-piperidin-1-yl)-ethoxy]-2-thieno[3,2-c]pyridin-6-yl-chromen-4-one oxime, hydrochloride]
EC50 [1]: < 1 µM | melting point: 225 to 230 °C

Cl.ON=c1cc(-c2cc3cccn3cn2)oc2ccc(OCCN3CCCOCC3)cc12 [Example 117, 6-(2-[1,4]oxazepan-4-yl-ethoxy)-2-pyrrolo[1,2-c]pyrimidin-3-yl-chromen-4-one oxime, hydrochloride]
EC50 [1]: < 1 µM | melting point: 240 °C (dec.)

ON=c1cc(-c2cn3cccc3cn2)oc2ccccc12 [Example 91, 2-Pyrrolo[1,2-a]pyrazin-3-yl-chromen-4-one oxime]
EC50 [1]: < 1 µM | melting point: > 276 °C

Cl.ON=c1cc(-c2cc3cccn3cn2)oc2ccc(OCCCN3CCOCC3)cc12 [Example 101, 6-(3-morpholin-4-yl-propoxy)-2-pyrrolo[1,2-c]pyrimidin-3-yl-chromen-4-one oxime, hydrochloride]
EC50 [1]: < 1 µM | melting point: > 220 °C (dec.)

C=CC#Cc1ccc2c(=NO)cc(-c3cc4ccccc4cn3)oc2c1 (mixture of isomers) [Example 55, 7-but-3-en-1-ynyl-2-Isoquinolin-3-yl-chromen-4-one oxime]
EC50 [1]: < 5 µM | melting point: > 210 °C (dec.)

Cl.Cl.ON=c1cc(-c2cc3cccn3cn2)oc2ccc(OCCN3CCC(N4CCCC4)CC3)cc12 [Example 118, 6-[2-(4-pyrrolidin-1-yl-piperidin-1-yl)-ethoxy]-2-pyrrolo[1,2-c]pyrimidin-3-yl-chromen-4-one oxime, dihydrochloride]
EC50 [1]: < 1 µM | melting point: > 210 °C (dec.)

ON=c1cc(-c2cc3cccn3cn2)oc2ccc(OCCc3ccc(C(F)(F)F)cc3)cc12 [Example 137, 2-Pyrrolo[1,2-c]pyrimidin-3-yl-6-[2-(4-trifluoromethyl-phenyl)-ethoxy]-chromen-4-one, oxime]
EC50 [1]: < 1 µM | melting point: 214 to 215 °C

Cl.ON=c1cc(-c2cc3sccc3cn2)oc2ccc(OCCCc3cccnc3)cc12 [Example 135, 6-(3-Pyridin-3-yl-propoxy)-2-thieno[3,2-c]pyridin-6-yl-chromen-4-one oxime, hydrochloride]
EC50 [1]: < 1 µM | melting point: 252 to 254 °C

COC1CCCN(CCOc2ccc3oc(-c4cc5cccn5cn4)cc(=NO)c3c2)C1.Cl (stereo not drawn) [Example 108, 6-[2-(3-methoxy-piperidin-1-yl)-ethoxy]-2-pyrrolo[1,2-c]pyrimidin-3-yl-chromen-4-one oxime, hydrochloride]
EC50 [1]: < 1 µM | melting point: 178 to 184 °C

ON=c1cc(-c2cc3ccccc3cn2)oc2cc(/C=C/c3ccccc3)ccc12 (mixture of isomers) [Example 21, 2-isoquinolin-3-yl-7-((E)-styryl)-chromen-4-one oxime]
EC50 [1]: < 5 µM | melting point: 273 to 276 °C

ON=c1cc(-c2cc3ccccc3cn2)oc2ccccc12 (mixture of isomers) [Example 1, 2-isoquinolin-3-yl-chromen-4-one oxime]
EC50 [1]: < 1 µM | melting point: 247 to 249 °C

ON=c1cc(-c2cc3cccn3cn2)oc2ccc(OCCOc3ccccc3)cc12 [Example 160, 6-(2-Phenoxy-ethoxy)-2-pyrrolo[1,2-c]pyrimidin-3-yl-chromen-4-one oxime]
EC50 [1]: < 1 µM | melting point: 210 to 215 °C

ON=c1cc(-c2cn3cccc3cn2)oc2ccc(OCCc3ccc(F)cc3)cc12 [Example 126, 6-[2-(4-Fluoro-phenyl)-ethoxy]-2-pyrrolo[1,2-a]pyrazin-3-yl-chromen-4-one oxime]
EC50 [1]: < 1 µM | melting point: 248 to 250 °C
